Our source for the IC50 values is patent publication US12378224B2 (Dong-A Socio Holdings Co., Ltd., priority 2016, dated 2025).

Assay [1] concerns the target human MER (528-end) (Homo sapiens (Human), UniProt Q12866). In words: HTRF Kinase Activity Biochemical Assay (KinEASE-TK). As to conditions: 10 uM ATP. The gist of the method:
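Recombinant human MER (528-end) phosphorylated biotin-TK peptide substrate, 1 h at room temperature. Reaction stopped with detection buffer containing 0.375 nM Eu3+-cryptate anti-TK antibody and 0.062 uM streptavidin-XL665, 1 h further. Activity taken as HTRF ratio 665/620 nm ×10,000, 340 nm excitation.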

Assay [2] concerns the target BCR fusion to kinase domain of MerTK (Ba/F3-MerTK) (Homo sapiens, UniProt Q12866). In words: In Cell TAM Kinase Assay Using BaF3 Cellular System. As to conditions: Ba/F3 BCR-kinase fusion proliferation, 72 hours, Cell Titer Glo; kinase not given; read-out: IC50. The format is cell-based, murine. The gist of the method:
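Ba/F3 murine pro-B cells expressing BCR–MerTK kinase-domain fusion (IL-3 independent), seeded at 1,000 cells/well onto compound and grown 72 h. Viability read by CellTiter-Glo 2.0 luminescence after 30 min at room temperature.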
In general terms: ATP-based viability assays read luminescence as a measure of living cells.

pIC50: −log10 of the molar value. Some results are limits rather than exact numbers.

Chain of BCR fusion to kinase domain of MerTK (Ba/F3-MerTK) (Q12866 21-999 limits assumed, change not shown): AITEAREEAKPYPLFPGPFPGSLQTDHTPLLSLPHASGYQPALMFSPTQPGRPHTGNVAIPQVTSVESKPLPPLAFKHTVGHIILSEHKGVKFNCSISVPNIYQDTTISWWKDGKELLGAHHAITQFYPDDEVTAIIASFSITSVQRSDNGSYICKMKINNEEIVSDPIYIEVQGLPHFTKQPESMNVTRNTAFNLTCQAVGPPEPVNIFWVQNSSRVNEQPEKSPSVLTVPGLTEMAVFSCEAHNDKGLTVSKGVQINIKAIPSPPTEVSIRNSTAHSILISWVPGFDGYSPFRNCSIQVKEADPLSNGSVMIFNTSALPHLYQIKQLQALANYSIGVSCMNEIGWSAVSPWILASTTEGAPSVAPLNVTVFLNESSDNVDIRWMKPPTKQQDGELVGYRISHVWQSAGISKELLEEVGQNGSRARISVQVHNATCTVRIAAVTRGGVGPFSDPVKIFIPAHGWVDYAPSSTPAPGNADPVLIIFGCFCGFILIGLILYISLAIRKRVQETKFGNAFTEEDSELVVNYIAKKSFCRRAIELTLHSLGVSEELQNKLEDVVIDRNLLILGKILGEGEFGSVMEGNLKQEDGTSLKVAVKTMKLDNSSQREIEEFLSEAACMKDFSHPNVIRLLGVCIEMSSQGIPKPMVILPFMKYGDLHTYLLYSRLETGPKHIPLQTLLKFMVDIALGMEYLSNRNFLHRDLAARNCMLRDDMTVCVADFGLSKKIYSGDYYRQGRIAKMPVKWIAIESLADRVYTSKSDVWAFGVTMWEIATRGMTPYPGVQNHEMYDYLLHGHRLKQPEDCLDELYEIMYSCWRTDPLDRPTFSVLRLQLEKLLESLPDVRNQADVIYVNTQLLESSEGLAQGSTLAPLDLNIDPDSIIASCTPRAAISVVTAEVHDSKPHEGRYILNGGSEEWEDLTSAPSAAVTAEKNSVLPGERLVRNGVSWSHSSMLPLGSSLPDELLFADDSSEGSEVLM
Chain of human MER (528-end) (Q12866 528-999 limits assumed): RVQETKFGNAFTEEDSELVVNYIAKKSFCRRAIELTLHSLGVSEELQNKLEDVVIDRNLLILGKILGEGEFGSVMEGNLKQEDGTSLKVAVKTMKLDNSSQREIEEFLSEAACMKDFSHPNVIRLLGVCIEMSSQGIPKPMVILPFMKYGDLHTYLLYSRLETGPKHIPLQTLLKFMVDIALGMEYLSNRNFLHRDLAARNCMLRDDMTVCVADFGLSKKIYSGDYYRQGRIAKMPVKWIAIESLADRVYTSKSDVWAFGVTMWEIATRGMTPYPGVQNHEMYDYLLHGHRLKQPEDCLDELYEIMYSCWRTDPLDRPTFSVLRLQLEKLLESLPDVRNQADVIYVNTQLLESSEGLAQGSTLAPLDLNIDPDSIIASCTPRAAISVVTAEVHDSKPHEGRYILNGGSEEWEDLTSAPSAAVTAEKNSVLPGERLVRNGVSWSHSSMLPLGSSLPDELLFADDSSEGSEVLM

With `Cn1cc(-c2cnc(N)c(C(=O)N[C@@H]3CCN(C(=O)c4ccc(-c5ccc(Oc6ccc(C=O)cc6)cc5)cc4)C3)c2)cn1` [Example 811, (R)-2-amino-N-(1-(4′-(4-formylphenoxy)-[1,1′-biphenyl]-4-carbonyl)pyrrolidin-3-yl)-5-(1-methyl-1H-pyrazol-4-yl)nicotinamide], the pIC50 is 7.00 to 8.00 in assay [1] and less than 6.00 in assay [2].

For the molecule `CN(c1ccc(-c2ccc(C(=O)N3CC[C@@H](NC(=O)c4cc(-c5cnn(C)c5)cnc4N)C3)cc2)cc1)c1ccc([N+](=O)[O-])cc1` [Example 803, (R)-2-amino-N-(1-(4′-(methyl(4-nitrophenyl)amino)-[1,1′-biphenyl]-4-carbonyl)pyrrolidin-3-yl)-5-(1-methyl-1H-pyrazol-4-yl)nicotinamide], the pIC50 in assay [1] is 6.00 to 7.00; in assay [2] it was less than 6.00.

Turning to `Cn1cc(-c2cnc(N)c(C(=O)N[C@@H]3CCN(C(=O)c4ccc(-c5cccc(CO)c5)cc4)C3)c2)cn1` [Example 748, (R)-2-amino-N-(1-(3′-(hydroxymethyl)-[1,1′-biphenyl]-4-carbonyl)pyrrolidin-3-yl)-5-(1-methyl-1H-pyrazol-4-yl)nicotinamide], the pIC50 in assay [1] was 7.00 to 8.00; in assay [2], 6.30 to 7.00.

With `Cn1cc(-c2cnc(N)c(C(=O)N[C@@H]3CCN(C(=O)c4ccc(-c5cccc(-c6nnn[nH]6)c5)cc4)C3)c2)cn1` [Example 713, (R)—N-(1-(3′-(1H-tetrazol-5-yl)-[1,1′-biphenyl]-4-carbonyl)pyrrolidin-3-yl)-2-amino-5-(1-methyl-1H-pyrazol-4-yl)nicotinamide], the pIC50 in assay [1] was 6.00 to 7.00; in assay [2] it was less than 6.00.

Take `CN(C)CCCOc1ccc2cc(C(=O)N3CC[C@@H](NC(=O)c4cc(-c5cnn(C)c5)cnc4N)C3)ccc2c1` [Example 766, (R)-2-amino-N-(1-(6-(3-(dimethylamino)propoxy)-2-naphthoyl)pyrrolidin-3-yl)-5-(1-methyl-1H-pyrazol-4-yl)nicotinamide]: the figures for the pIC50 in assay [1] and in assay [2] were 6.00 to 7.00 and less than 6.00, respectively.

Take `Cn1cc(-c2cnc(N)c(C(=O)N[C@@H]3CCN(C(=O)c4ccc(-c5ccc(Oc6cccnc6)cc5)cc4)C3)c2)cn1` [Example 802, (R)-2-amino-5-(1-methyl-1H-pyrazol-4-yl)-N-(1-(4′-(pyridin-3-yloxy)-[1,1′-biphenyl]-4-carbonyl)pyrrolidin-3-yl)nicotinamide]: the figures for the pIC50 in assay [1] and in assay [2] were 6.00 to 7.00 and less than 6.00, respectively.

For `Cn1cc(-c2cnc(N)c(C(=O)N[C@@H]3CCN(C(=O)c4ccc5c(ccn5CC5CCNCC5)c4)C3)c2)cn1` [Example 709, (R)-2-amino-5-(1-methyl-1H-pyrazol-4-yl)-N-(1-(1-(piperidin-4-ylmethyl)-1H-indole-5-carbonyl)pyrrolidin-3-yl)nicotinamide], the pIC50 in assay [1] is 6.00 to 7.00; in assay [2], less than 6.00.

Take `Cn1cc(-c2cnc(N)c(C(=O)N[C@@H]3CCN(C(=O)c4ccc(-c5ccc(CC6CCN(CCO)CC6)cc5)cc4)C3)c2)cn1` [Example 819, (R)-2-amino-N-(1-(4′-((1-(2-hydroxyethyl)piperidin-4-yl)methyl)-[1,1′-biphenyl]-4-carbonyl)pyrrolidin-3-yl)-5-(1-methyl-1H-pyrazol-4-yl)nicotinamide]: the results for the pIC50 in assay [1] and in assay [2] were 7.00 to 8.00 and less than 6.00, respectively.

Turning to `Cn1cc(-c2cnc(N)c(C(=O)N[C@@H]3CCN(C(=O)c4ccc(-c5cccc(F)c5Cl)cc4)C3)c2)cn1` [Example 673, (R)-2-amino-N-(1-(2′-chloro-3′-fluoro-[1,1′-biphenyl]-4-carbonyl)pyrrolidin-3-yl)-5-(1-methyl-1H-pyrazol-4-yl)nicotinamide], the negative-log IC50 (pIC50) in assay [1] was 7.00 to 8.00; in assay [2], 6.00 to 6.30.

On to `CN(c1ccc(-c2ccc(C(=O)N3CC[C@@H](NC(=O)c4cc(-c5cnn(C)c5)cnc4N)C3)cc2)cc1)c1ccc([N+](=O)[O-])cc1Cl` [Example 806, (R)-2-amino-N-(1-(4′-((2-chloro-4-nitrophenyl)(methyl)amino)-[1,1′-biphenyl]-4-carbonyl)pyrrolidin-3-yl)-5-(1-methyl-1H-pyrazol-4-yl)nicotinamide], for which the pIC50 in assay [1] and in assay [2] was less than 6.00 each time.

`CC(C)c1cccc(-c2ccc(C(=O)N3CC[C@@H](NC(=O)c4cc(-c5cnn(C)c5)cnc4N)C3)cc2)c1` [Example 658, (R)-2-amino-N-(1-(3′-isopropyl-[1,1′-biphenyl]-4-carbonyl)pyrrolidin-3-yl)-5-(1-methyl-1H-pyrazol-4-yl)nicotinamide]: the pIC50 is 6.00 to 7.00 in assay [1] and 6.00 to 6.30 in assay [2].

Take `Cn1cc(-c2cnc(N)c(C(=O)N[C@@H]3CCN(C(=O)C(=O)c4ccccc4)C3)c2)cn1` [Example 546, (R)-2-amino-5-(1-methyl-1H-pyrazol-4-yl)-N-(1-(2-oxo-2-phenylacetyl)pyrrolidin-3-yl)nicotinamide]: the pIC50 in assay [1] and in assay [2] was less than 6.00 each time.

On to `Cc1ccc(-c2ccc(C(=O)N3CC[C@@H](NC(=O)c4cc(-c5cnn(C)c5)cnc4N)C3)cc2)s1` [Example 526, (R)-2-amino-5-(1-methyl-1H-pyrazol-4-yl)-N-(1-(4-(5-methylthiophen-2-yl)benzoyl)pyrrolidin-3-yl)nicotinamide], for which the pIC50 in assay [1] was 7.00 to 8.00; in assay [2], less than 6.00.

Turning to `Cn1cc(-c2cnc(N)c(C(=O)N[C@@H]3CCN(C(=O)c4ccc(Oc5ccc(N)cc5)cc4)C3)c2)cn1` [Example 832, (R)-2-amino-N-(1-(4-(4-aminophenoxy)benzoyl)pyrrolidin-3-yl)-5-(1-methyl-1H-pyrazol-4-yl)nicotinamide], the pIC50 in assay [1] and in assay [2] was less than 6.00 throughout.

On to `CCn1c(C(=O)N2CC[C@@H](NC(=O)c3cc(-c4cnn(C)c4)cnc3N)C2)cc2ccccc21` [Example 701, (R)-2-amino-N-(1-(1-ethyl-1H-indole-2-carbonyl)pyrrolidin-3-yl)-5-(1-methyl-1H-pyrazol-4-yl)nicotinamide], for which the pIC50 in assay [1] and in assay [2] was less than 6.00 throughout.

As for `CN1CCCC1CCOc1ccc2cc(C(=O)N3CC[C@@H](NC(=O)c4cc(-c5cnn(C)c5)cnc4N)C3)ccc2c1` (some centres unmarked) [Example 764], the values for the pIC50 in assay [1] and in assay [2] were 6.00 to 7.00 and less than 6.00, respectively.

Turning to `Cn1cc(-c2cnc(N)c(C(=O)NC[C@H]3CCN(C(=O)c4ccc(-c5ccccc5)cc4)C3)c2)cn1` [Example 740, (R)—N-((1-([1,1′-biphenyl]-4-carbonyl)pyrrolidin-3-yl)methyl)-2-amino-5-(1-methyl-1H-pyrazol-4-yl)nicotinamide], the pIC50 in assay [1] and in assay [2] was less than 6.00 each time.

Take `Cn1cc(-c2cnc(N)c(C(=O)N[C@@H]3CCN(C(=O)c4ccc(-c5ccc(Oc6ccc(CO)cc6)cc5)cc4)C3)c2)cn1` [Example 635, (R)-2-amino-N-(1-(4′-(4-(hydroxymethyl)phenoxy)-[1,1′-biphenyl]-4-carbonyl)pyrrolidin-3-yl)-5-(1-methyl-1H-pyrazol-4-yl)nicotinamide]: the pIC50 is 7.00 to 8.00 in assay [1] and 6.30 to 7.00 in assay [2].

Turning to `Cn1cc(-c2cnc(N)c(C(=O)N[C@@H]3CCN(C(=O)c4ccc(OCc5ccc([N+](=O)[O-])cc5)cc4)C3)c2)cn1` [Example 769, (R)-2-amino-5-(1-methyl-1H-pyrazol-4-yl)-N-(1-(4-((4-nitrobenzyl)oxy)benzoyl)pyrrolidin-3-yl)nicotinamide], the pIC50 in assay [1] is 6.00 to 7.00; in assay [2], less than 6.00.

Usually pIC50 stands for the IC50 on a negative log10 scale, so that one unit is a factor of ten.
